Assay results reported in patent US6642271B2, “Potentiating compounds” (Ardenia Investments, Ltd., priority 2001, dated 2003).

What was measured:
[1] = system: human breast adenocarcinoma MDA-MB-231 cell line; test: Cytotoxicity: cell growth inhibition in cultures, viable cells counted by trypan blue exclusion; format: cell-based; settings: for inhibition at 0.04 µM / inhibition at 1 µM / inhibition at 0.1 µM / inhibition at 0.01 µM / inhibition at 0.001 µM / inhibition at 0.0001 µM / inhibition at 10 pM: Homo sapiens; for inhibition at 0.04 µM / inhibition at 1 µM / inhibition at 0.1 µM / inhibition at 0.01 µM / inhibition at 0.001 µM / inhibition at 0.0001 µM: MDA-MB-231, sodium salt in saline; for inhibition at 0.04 µM / inhibition at 1 µM / inhibition at 0.1 µM / inhibition at 0.01 µM / inhibition at 0.001 µM / inhibition at 0.0001 µM / inhibition at 10 pM / number of living cells / cell growth inhibition: day 1, three days; for inhibition at 1 µM / cell growth inhibition: final 10^−6 mol/L (top of range 10^−11 M to 10^−6 M); for inhibition at 10 pM: MDA-MB-231, sodium salt of the compound dissolved in saline (1 mg/ml); for Cell growth inhibition % Formulation: compound/paclitaxel formulations in saline; for Cell growth inhibition % OF W/SAB / Cell growth inhibition % OF SAB/W: dried compound/paclitaxel mixed-micellar system (OF); for Cell growth inhibition % OF W/SAB: freeze-dried as water solution, reconstituted with 0.05 M sodium acetate buffer; for Cell growth inhibition % OF SAB/W: freeze-dried in 0.05 M sodium acetate buffer, reconstituted with water
Description: The cell line was propagated by cultivation in Nunclon 25 cm^2 flasks (Nunc A/S, Denmark) in Minimum Essential Medium Eagle (MEM), containing antibiotics and supplemented with 10% (v/v) fetal bovine serum (FBS) (Sigma, St. Louis, Mo., USA). The cultures were maintained in growth medium at 37° C. in a humidified atmosphere, 95% air and 5% CO2.
A suspension of tumour cells (60×10^3 cells/mL) was prepared in MEM with 5% FBS and antibiotics. Cell suspension (200 μL) was seeded in wells of Nunclon 96-microwell plates (Nunc A/S, Denmark) at a density of 12×10^3 cell/well. The solutions of the drugs to be tested were added to the cultures on day 0 or day 1 in volumes of 2 μL. In all cases the cells were incubated for 3 days.
At the end of the incubation period, adherent cells were detached by trypsinization and the number of viable cells was counted using trypan blue dye exclusion test and a hemocytometer.
All experiments were performed at least twice and the cells counts were done in triplicate for each drug concentration. Each control and test series consisted of 6-8 cultures. The results are expressed as mean cell number ±SD and the differences between control and test series were evaluated by means of Student's t-test. The cytotoxicity of each tested drug was evaluated by the extent of cell growth inhibition. The Cell growth inhibition was evaluated as follows:
Cell growth inhibition, %=- - - ×100

[2] = Solubility of compounds and formulations; format: physicochemical; settings: for solubility in solvents: sodium salts
Description: The obtained solution can be stored for at least three months at low temperatures, without noticeable change in the properties of compound (I-VI). Moreover, the formulation retains its cytotoxic effects during prolonged storage. Before use, the solution is evaporated in vacuo to yield a waxy solid which is dissolved in saline or other commonly used vehicle for intravenous infusion to a patient. […] An ethanol solution is prepared of one of N-(all-trans-Retinoyl)-L-cysteic acid (I), N-(13-cis-Retinoyl)-L-cysteic acid (11), N-(all-trans-Retinoyl)-L-homocysteic acid (III), N-(13-cis-Retinoyl)-L-homocysteic acid (IV), N-(all-trans-Retinoyl)-L-cysteinesulfinic acid (V), or N-(13-cis-Retinoyl)-L-cysteinesulfinic acid (VI). The obtained solution is evaporated in vacuo to give waxy solid, whereupon Taxol® is added, dissolving the waxy solid. […]

[3] = final concentration 10^−11 mol/L
[4] = sodium salt in saline, final 4 × 10^−8 mol/L
[5] = sodium salt in saline, final 10^−6 mol/L
[6] = sodium salt in saline, final 10^−7 mol/L
[7] = sodium salt in saline, final 10^−8 mol/L
[8] = sodium salt in saline, final 10^−9 mol/L
[9] = sodium salt in saline, final 10^−10 mol/L
[10] = sodium salt of the compound dissolved in saline (1 mg/ml), final concentration 10^−11 mol/L

Compound | inhibition at 0.04 µM ([1]; final 4 × 10^−8 mol/L) [%] | inhibition at 1 µM [1] [%] | inhibition at 0.1 µM ([1]; final 10^−7 mol/L) [%] | inhibition at 0.01 µM ([1]; final 10^−8 mol/L) [%] | inhibition at 0.001 µM ([1]; final 10^−9 mol/L) [%] | inhibition at 0.0001 µM ([1]; final 10^−10 mol/L) [%] | inhibition at 10 pM [1, 3] [%] | Cell growth inhibition % Formulation [1] | Cell growth inhibition % OF W/SAB [1] | Cell growth inhibition % OF SAB/W [1] | number of living cells [1, 4] | cell growth inhibition ([1]; sodium salt in saline) [%] | number of living cells [1, 5] | number of living cells [1, 6] | number of living cells [1, 7] | number of living cells [1, 8] | number of living cells [1, 9] | number of living cells [1, 10] | solubility in the commercially available Taxol® preparation [2] | solubility in solvents [2]
CC1=C(/C=C/C(C)=C/C=C/C(C)=C\C(=O)N[C@@H](CS(=O)O)C(=O)O)C(C)(C)CCC1 [Compound VI, N-(13-cis-Retinoyl)-L-cysteinesulfinic acid] | 24.9 | 27.3 | 25.8 | 22.4 | 14 | 13.7 | 12.3 | close to 55% | close to 56% | close to 58% | 39.6 ± 2.70 × 10^3 | ~30 | 38.3 ± 2.34 × 10^3 | 39.1 ± 2.16 × 10^3 | 40.9 ± 2.88 × 10^3 | 45.3 ± 2.55 × 10^3 | 45.5 ± 2.68 × 10^3 | 46.2 ± 3.54 × 10^3 | excellent solubility | soluble only in mixtures containing water
CC1=C(/C=C/C(C)=C/C=C/C(C)=C\C(=O)N[C@@H](CCS(=O)(=O)O)C(=O)O)C(C)(C)CCC1 [Compound IV, N-(13-cis-Retinoyl)-L-homocysteic acid] | 29.6 | 31.9 | 31.1 | 24.9 | 17.3 | 16.1 | 14.8 | close to 60% | close to 62% | close to 63% | 37.1 ± 2.56 × 10^3 | ~35 | 35.9 ± 2.29 × 10^3 | 36.3 ± 2.08 × 10^3 | 39.6 ± 2.74 × 10^3 | 43.6 ± 3.21 × 10^3 | 44.2 ± 3.35 × 10^3 | 44.9 ± 3.02 × 10^3 | excellent solubility | also dissolved in methanol and some methanol containing mixtures
CC1=C(/C=C/C(C)=C/C=C/C(C)=C/C(=O)N[C@@H](CCS(=O)(=O)O)C(=O)O)C(C)(C)CCC1 [Compound III, N-(all-trans-Retinoyl)-L-homocysteic acid] | 32.8 | 36.1 | 34.4 | 25.8 | 19.7 | 15.5 | 16.9 | close to 60% | close to 62% | close to 63% | 36.5 ± 2.08 × 10^3 | ~35 | 34.7 ± 1.52 × 10^3 | 35.6 ± 1.68 × 10^3 | 40.3 ± 3.36 × 10^3 | 43.6 ± 2.57 × 10^3 | 45.9 ± 2.84 × 10^3 | 45.1 ± 3.51 × 10^3 | excellent solubility | also dissolved in methanol and some methanol containing mixtures
